Measurements from US6943196B1, “NF-κB inhibitor comprising phenylmethyl benzoquinone as the active ingredient” (Daiichi Suntory Pharma Co., Ltd., priority 1998, dated 2005).

Assays:
[1] = test system: NO production; experiment: NO production of LPS-stimulated RAW264.7 cells (Griess' method); assay type: cell-based; details: Mus musculus, LPS (10 μg/ml), NO in culture medium after 24 hours
Excerpt: (§1) When various cells are stimulated with LPS, NF-κB is activated which results in the expression and induction of proteins represented by […] and TNF-α, and thereby the cells start to produce NO and TNF-α.
The Griess' method utilizing a diazo reaction has been known as a method for indirectly knowing that a cell actually produces NO. In the Griess' method, the Griess' reagent in which naphthylethylenediamine and sulfanilic acid have been mixed is reacted with NO2 ion in the culture medium, and the color development thereof is measured by absorbance at 540 nm. The amount of NO accumulated in the cell culture medium after 24 hours was measured in this method with a result that the production of NO released from LPS (10 μg/ml)-stimulated RAW264.7 cells (ATCC, TIB-71) derived from macrophage is suppressed by the compound obtained in Example 4 (FIG. 4A).
(§2) The inhibitory activity of the compounds shown in the Examples is expressed as an IC50 value.

[2] = test system: TNF-α production; experiment: TNF-α production of LPS-stimulated RAW264.7 cells (ELISA); assay type: cell-based; details: Mus musculus, LPS (10 μg/ml) for 4 hours
Excerpt: as §1, §2

SMILES | IC50 [1] [µM] | IC50 [2] [µM]
COC1=C(OC)C(=O)C(Cc2ccc(CCC(=O)NC(C)C)cc2)=C(C)C1=O [Example 9, N-[3-[4-(5,6-dimethoxy-3-methyl-1,4-benzoquinon-2-ylmethyl)phenyl]propionyl]isopropylamine] | 10 | 16
COC1=C(OC)C(=O)C(Cc2ccc(CCC(=O)N3CCCC(C)C3)cc2)=C(C)C1=O (stereo not shown) [Example 85] | 21 | 26
COC1=C(OC)C(=O)C(Cc2ccc(CCC(=O)N3CCCCC3C)cc2)=C(C)C1=O (stereo not shown) [Example 83] | 6 | 9
COC1=C(OC)C(=O)C(Cc2ccc(CCC(=O)N[C@@H](C)c3ccccc3)cc2)=C(C)C1=O [Example 120] | 7 | 11
COC1=C(OC)C(=O)C(Cc2ccc(CCC(=O)N3CCSCC3)cc2)=C(C)C1=O [Example 4, N-[3-[4-(5,6-dimethoxy-3-methyl-1,4-benzoquinon-2-ylmethyl)phenyl]propionyl]thiomorpholine] | 21 | 21
COC1=C(OC)C(=O)C(Cc2ccc(CCC(=O)N3CCC(C)CC3)cc2)=C(C)C1=O [Example 81] | 13 | 13
COC1=C(OC)C(=O)C(Cc2ccc(CCC(=O)Nc3ccc(OC)c(OC)c3)cc2)=C(C)C1=O [Example 103] | 31 | 31
COC1=C(OC)C(=O)C(Cc2ccc(CCC(=O)N3CCC[C@H]3C(N)=O)cc2)=C(C)C1=O [Example 106] | 17 | 25
COC1=C(OC)C(=O)C(Cc2ccc(CC(=O)N3CCOCC3)cc2)=C(C)C1=O [Example 53, N-[4-(5,6-dimethoxy-3-methyl-1,4-benzoquinon-2-ylmethyl)phenylacetyl]morpholine] | 19 | 19
COC1=C(OC)C(=O)C(Cc2ccc(CCC(=O)N3CC(C)CC(C)C3)cc2)=C(C)C1=O (stereo not shown) [Example 137] | 20 | 20
COC1=C(OC)C(=O)C(Cc2ccc(CCC(=O)N3CCCCC3)cc2)=C(C)C1=O [Example 7, N-[3-[4-(5,6-dimethoxy-3-methyl-1,4-benzoquinon-2-ylmethyl)phenyl]propionyl]piperidine] | 15 | 22
COC1=C(OC)C(=O)C(Cc2ccc(CCC(=O)N3CCC(C(C)=O)(c4ccccc4)CC3)cc2)=C(C)C1=O [Example 168] | 17 | 17
COC1=C(OC)C(=O)C(Cc2ccc(CCC(=O)Nc3ccc(OC)cc3)cc2)=C(C)C1=O [Example 94] | 9 | 11
COC1=C(OC)C(=O)C(Cc2cccc(CCC(=O)NC(C)C)c2)=C(C)C1=O [Example 35, N-[3-[3-(5,6-dimethoxy-3-methyl-1,4-benzoquinon-2-ylmethyl)phenyl]propioyl]isopropylamine] | 19 | 19
